Reference: patent US5496533A, “Rhenium complexes” (Australian Nuclear Science & Technology Organisation, priority 1992, dated 1996)
Read-outs that look alike come from different tables or passages of the source.

Assay: Hygroscopic nature of the HCl salts
Format: physicochemical
Protocol: To a solution of N-methyl-bicyclic compound (2) (10 mmole) in dry THF (100-150ml) was added a large excess of LiAlH4 (30 mmole), and the mixture was refluxed for about 24 hr. The reaction mixture was quenched with […]. NH4 Cl, and filtered. The contents of the funnel were washed with 100ml of CHCl3 twice and the combined filtrate of THF and CHCl3 was evaporated to dryness under reduced pressure. The residue was dissolved in ether (100 ml), and the hydrochloride salt was made by addition of ethanol--HCl and removal of organic solvent under reduced pressure.
To a solution of N-acyl-bicyclic compound (3) (10 mmole) in dry tetrahydrofuran (THF) (100-150ml) was added a large excess of LiAlH4 (50 mmole), and the mixture was refluxed for about 24 hr. The reaction mixture was quenched with satd. NH4 Cl, and filtered. The contents of the funnel were washed with 100 ml of CHCl3 twice and the combined filtrate of THF and CHCl3 was evaporated to dryness under reduced pressure. Water was added (100 ml), and the pH was adjusted to 3.0 with concentrated HCl. The mixture was extracted with diethyl ether (80 ml/extraction) to remove ether soluble impurities. These ether solutions were discarded. The pH was then adjusted to 8.0 and extracted with fresh ether. These ether solutions were dried (Na2 SO4), filtered and evaporated under reduced pressure. […]

hygroscopic nature of HCl salts: very hygroscopic
hygroscopic nature of HCl salts (listed as 4(N--Me)): strong hygroscopic nature
SMILES: CN(CCNCC(C)(C)S)CC(C)(C)S [N-methyl compound (4), 2,2,9,9-pentamethyl-4-N-methyl-4,7-diaza-1,10-decanedithiol]
